This assay relates to Ba/F3-CDM cells (Ba/F3 transfected with CD8-MerTK). Description: In cell MER kinase assay, Ba/F3-CDM cell proliferation without IL-3 (Celltiter-Glo, GI50). It counts as cell-based, murine. As to conditions: 48 hours, read-out: Cell growth inhibition (GI50). In outline:
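Ba/F3 cells expressing CD8-MerTK were grown without IL-3, so that proliferation depends on MerTK. Cells were pre-incubated 24 h, then exposed to compound for 48 h. Viability was read by CellTiter-Glo, with IL-3-supplemented Ba/F3 run in parallel as a nonspecific cytotoxicity control, and GI50 was derived.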

Molecules are shown by their SMILES.

Consider `CCc1cc(CO[C@H]2CNC[C@@H]2NC(=O)c2cc(-c3cccnc3)cnc2N)ccc1C` [Example 396, 6-amino-N-((3S,4S)-4-((3-ethyl-4-methylbenzyl)oxy)pyrrolidin-3-yl)-[3,3′-bipyridine]-5-carboxamide], for which the 50% growth inhibitory concentration (GI50) is greater than 1000 nM.

On to `CCc1cc(CO[C@H]2CNC[C@@H]2NC(=O)c2cc(-c3ccc(NS(C)(=O)=O)cc3)cnc2N)ccc1C` [Example 401, 2-amino-N-((3S,4S)-4-((3-ethyl-4-methylbenzyl)oxy)pyrrolidin-3-yl)-5-(4-(methylsulfonamido)phenyl)nicotinamide], for which the GI50 was greater than 1000 nM. As to `CCc1cc(CO[C@H]2CNC[C@@H]2NC(=O)c2cc(-c3cnn(C4CCNCC4)c3)cnc2N)ccc1C` [Example 412, 2-amino-N-((3S,4S)-4-((3-ethyl-4-methylbenzyl)oxy)pyrrolidin-3-yl)-5-(1-(piperidin-4-yl)-1H-pyrazol-4-yl)nicotinamide], the GI50 is greater than 1000 nM.

Take `Cc1ccc(CO[C@H]2CNC[C@@H]2NC(=O)c2cc(-c3cnn(C)c3)cnc2N)cc1` [Example 415, 2-amino-5-(1-methyl-1H-pyrazol-4-yl)-N-((3S,4S)-4-((4-methylbenzyl)oxy)pyrrolidin-3-yl)nicotinamide]: the GI50 was greater than 1000 nM. Take `CCc1cc(CO[C@H]2CNC[C@@H]2NC(=O)c2cc(-c3ccc(C(=O)NC4CCN(C)CC4)cc3)cnc2N)ccc1C` [Example 419, 2-amino-N-((3S,4S)-4-((3-ethyl-4-methylbenzyl)oxy)pyrrolidin-3-yl)-5-(4-((1-methylpiperidin-4-yl)carbamoyl)phenyl)nicotinamide]: the GI50 is greater than 1000 nM. On to `CN1CCN(Cc2ccc(-c3ccc(CO[C@H]4CN(C)C[C@@H]4NC(=O)c4cc(-c5cnn(C)c5)cnc4N)cc3)cc2C(F)(F)F)CC1` [Example 437, 2-amino-5-(1-methyl-1H-pyrazol-4-yl)-N-((3S,4S)-1-methyl-4-((4′-((4-methylpiperazin-1-yl)methyl)-3′-(trifluoromethyl)-[1,1′-biphenyl]-4-yl)-methoxy)pyrrolidin-3-yl)nicotinamide], for which the concentration for 50% growth inhibition (GI50) was less than 100 nM. Consider `Cn1cc(-c2cnc(N)c(C(=O)N[C@H]3CNC[C@@H]3OCc3ccc(-c4ccc(C(C)(C)N5CCN(CCO)CC5)cc4)cc3)c2)cn1` [Example 440], for which the GI50 is greater than 1000 nM.

With `CC(c1ccc(-c2ccc(CO[C@H]3CNC[C@@H]3NC(=O)c3cc(-c4cnn(C)c4)cnc3N)cc2)cc1)N1CCN(CCO)CC1` (stereo partly drawn) [Example 442, 2-amino-N-((3S,4S)-4-((4′-(1-(4-(2-hydroxyethyl)piperazin-1-yl)ethyl)-[1,1′-biphenyl]-4-yl)methoxy)pyrrolidin-3-yl)-5-(1-methyl-1H-pyrazol-4-yl)nicotinamide], the GI50 was greater than 1000 nM. Consider `CC(c1ccc(-c2ccc(CO[C@H]3CN(C)C[C@@H]3NC(=O)c3cc(-c4cnn(C)c4)cnc3N)cc2)cc1)N1CCN(CCO)CC1` (stereo partly drawn) [Example 443, 2-amino-N-((3S,4S)-4-((4′-(1-(4-(2-hydroxyethyl)piperazin-1-yl)ethyl)-[1,1′-biphenyl]-4-yl)methoxy)-1-methylpyrrolidin-3-yl)-5-(1-methyl-1H-pyrazol-4-yl)nicotinamide], for which the GI50 was less than 100 nM. As for `Cn1cc(-c2cnc(N)c(C(=O)N[C@H]3CNC[C@@H]3OCc3ccc(-c4ccc(CN5CCN(CCO)CC5)c(C(F)(F)F)c4)cc3)c2)cn1` [Example 444, 2-amino-N-((3S,4S)-4-((4′-((4-(2-hydroxyethyl)piperazin-1-vi)-methyl)-3′-(trifluoromethyl)-[1,1′-biphenyl]-4-yl)methoxy)pyrrolidin-3-yl)-5-(1-methyl-1H-pyrazol-4-yl)nicotinamide], the GI50 was greater than 1000 nM. As for `CN1C[C@H](NC(=O)c2cc(-c3cnn(C)c3)cnc2N)[C@@H](OCc2ccc(-c3ccc(CN4CCN(CCO)CC4)c(C(F)(F)F)c3)cc2)C1` [Example 445, 2-amino-N-((3S,4S)-4-((4′-((4-(2-hydroxyethyl)piperazin-1-vi)-methyl)-3′-(trifluoromethyl)-[1,1′-biphenyl]-4-yl)methoxy)-1-methylpyrrolidin-3-yl)-5-(1-methyl-1H-pyrazol-4-yl)nicotinamide], the GI50 was less than 100 nM. For `Cn1cc(-c2cnc(N)c(C(=O)N[C@H]3CNC[C@@H]3OCc3ccc(-c4ccc(CN5CCN(CCO)CC5)cc4)cc3)c2)cn1` [Example 446, 2-amino-N-((3S,4S)-4-((4′-((4-(2-hydroxyethyl)piperazin-1-yl)-methyl)-[1,1′-biphenyl]-4-yl)methoxy)pyrrolidin-3-yl)-5-(1-methyl-1H-pyrazol-4-yl)-nicotinamide], the GI50 was greater than 1000 nM. Consider `CN1C[C@H](NC(=O)c2cc(-c3cnn(C)c3)cnc2N)[C@@H](OCc2ccc(-c3ccc(CN4CCN(CCO)CC4)cc3)cc2)C1` [Example 447, 2-amino-N-((3S,4S)-4-((4′-((4-(2-hydroxyethyl)piperazin-1-yl)-methyl)-[1,1′-biphenyl]-4-yl)methoxy)-1-methylpyrrolidin-3-yl)-5-(1-methyl-1H-pyrazol-4-yl)nicotinamide], for which the GI50 is less than 100 nM.

Take `CN1CCN(Cc2ccc(-c3ccc(CO[C@H]4COC[C@@H]4NC(=O)c4cc(-c5cnn(C)c5)cnc4N)cc3)cc2)CC1` [Example 448, 2-amino-5-(1-methyl-1H-pyrazol-4-yl)-N-((3S,4R)-4-((4′-((4-methylpiperazin-1-yl)methyl)-[1,1′-biphenyl]-4-yl)methoxy)tetrahydrofuran-3-yl)-nicotinamide]: the GI50 is less than 100 nM. With `CN1CCN(Cc2ccc(-c3ccc(CO[C@H]4COC[C@@H]4NC(=O)c4cc(-c5cnn(C)c5)cnc4N)cc3)cc2C(F)(F)F)CC1` [Example 449, 2-amino-5-(1-methyl-1H-pyrazol-4-yl)-N-((3S,4R)-4-((4′-((4-methylpiperazin-1-yl)methyl)-3′-(trifluoromethyl)-[1,1′-biphenyl]-4-yl)methoxy)-tetrahydrofuran-3-yl)nicotinamide], the GI50 is less than 100 nM. As for `CN1CCN(C(C)(C)c2ccc(-c3ccc(CO[C@H]4COC[C@@H]4NC(=O)c4cc(-c5cnn(C)c5)cnc4N)cc3)cc2)CC1` [Example 450, 2-amino-5-(1-methyl-1H-pyrazol-4-yl)-N-((3S,4R)-4-((4′-(2-(4-methylpiperazin-1-yl)propan-2-yl)-[1,1′-biphenyl]-4-yl)methoxy)tetrahydrofuran-3-yl)nicotinamide], the GI50 was less than 100 nM.

Take `Cn1cc(-c2cnc(N)c(C(=O)N[C@H]3COC[C@@H]3OCc3ccc(-c4ccc(CN5CCN(CCO)CC5)cc4)cc3)c2)cn1` [Example 451, 2-amino-N-((3S,4R)-4-((4′-((4-(2-hydroxyethyl)piperazin-1-yl)methyl)-[1,1′-biphenyl]-4-yl)methoxy)tetrahydrofuran-3-yl)-5-(1-methyl-1H-pyrazol-4-yl)nicotinamide]: the 50% growth inhibitory concentration (GI50) is less than 100 nM. For the compound `Cn1cc(-c2cnc(N)c(C(=O)N[C@H]3COC[C@@H]3OCc3ccc(-c4ccc(CN5CCN(CCO)CC5)c(C(F)(F)F)c4)cc3)c2)cn1` [Example 452], the GI50 is less than 100 nM.

For the origin of these results see US10947215B2, “Heteroaryl compounds and their use as therapeutic drugs” (Dong-A Socio Holdings Co., Ltd., priority 2015, dated 2021).
